Laboratory results taken from patent publication US5416191A, “Bradykinin antagonists” (Cortech, Inc., priority 1993, dated 1995).
Where two headings read alike, the source gives them in different places. Square brackets hold non-standard residues; d marks the D form. Peptide text beside a SMILES is read from it. * marks the point of attachment. Hyp = O=C(O)[C@@H]1C[C@@H](O)CN1; X19 = CCCCCCNC(=O)C*

Target: T1, bradykinin receptor of the B2 class (rat uterus) (Rattus norvegicus, UniProt P25023)
T1 construct: concentration effect curves to bradykinin (BK) on rat uterus in vitro; from tissue; host or cells: rat uterus
T1 sequence (P25023 1-396): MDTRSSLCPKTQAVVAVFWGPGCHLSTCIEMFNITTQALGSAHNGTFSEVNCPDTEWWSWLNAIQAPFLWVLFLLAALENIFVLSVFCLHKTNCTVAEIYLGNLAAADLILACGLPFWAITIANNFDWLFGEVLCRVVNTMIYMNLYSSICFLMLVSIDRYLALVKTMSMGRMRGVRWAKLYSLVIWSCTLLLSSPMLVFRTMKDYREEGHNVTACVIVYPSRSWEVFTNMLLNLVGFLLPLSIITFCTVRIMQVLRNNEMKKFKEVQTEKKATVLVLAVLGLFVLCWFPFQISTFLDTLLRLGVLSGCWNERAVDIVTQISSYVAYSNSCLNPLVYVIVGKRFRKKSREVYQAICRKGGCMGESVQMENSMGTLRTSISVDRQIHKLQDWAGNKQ
Assay: Rat uterus (RU) in vitro, antagonism of bradykinin
Conditions: for % RECOVERY: rat uterus
Experimental: Thus in vitro studies were performed on standard assay systems, namely, guinea-pig ileum (GPI), rat uterus (RU) and rabbit jugular vein (RJV). […] The PA2 can be defined as the negative logarithm of the molar concentration of the antagonist in the presence of which the potency of the agonist is reduced two-fold, i.e. twice the amount of agonist is required to produce a given response in the presence of, than in the absence of, the antagonist. A high potency of antagonism is indicated by a high PA2 value, i.e., a low concentration of antagonist is effective.
The percentage recovery (% Rec) was also determined for compounds with respect to each assay.
With respect to duration of activity, it is noted that after exposure to the highest concentration of antagonist, each tissue was washed extensively and then assessed for recovery from the antagonist effect.
Potency in the rat uterus assay was assessed as described above and PA2 values determined.

[1] = Table D, effect of linker length, read-out: pA2 (UTERUS) (converted)

SMILES	% REC (40 MIN) (Table D)	Kb [1] [nM]	further results
CCCCCCNC(=O)CSC[C@H](NC(=O)[C@H](Cc1ccccc1)NC(=O)CNC(=O)[C@@H]1C[C@@H](O)CN1C(=O)[C@@H]1CCCN1C(=O)[C@H](CCCNC(=N)N)NC(=O)[C@H](N)CCCNC(=N)N)C(=O)N[C@H](Cc1ccccc1)C(=O)N[C@@H](CC(C)C)C(=O)N[C@@H](CCCNC(=N)N)C(=O)O [CP-0266] (H-[dR]RP[Hyp]GFC(X19)[dF]LR-OH)	–	–	Kb (Table H, monomer modifications, read-out: RAT UTERUS pA2 (converted)): 6.31 nM; % RECOVERY (Table H): 70%
CC(C)C[C@H](NC(=O)[C@@H](Cc1ccccc1)NC(=O)[C@H](CSC1CC(=O)N(CCCCCCCCN2C(=O)CC(SC[C@H](NC(=O)[C@H](Cc3ccccc3)NC(=O)CNC(=O)[C@@H]3C[C@@H](O)CN3C(=O)[C@@H]3CCCN3C(=O)[C@H](CCCNC(=N)N)NC(=O)[C@H](N)CCCNC(=N)N)C(=O)N[C@H](Cc3ccccc3)C(=O)N[C@@H](CC(C)C)C(=O)N[C@@H](CCCNC(=N)N)C(=O)O)C2=O)C1=O)NC(=O)[C@H](Cc1ccccc1)NC(=O)CNC(=O)[C@@H]1C[C@@H](O)CN1C(=O)[C@@H]1CCCN1C(=O)[C@H](CCCNC(=N)N)NC(=O)[C@H](N)CCCNC(=N)N)C(=O)N[C@@H](CCCNC(=N)N)C(=O)O (stereo partly drawn) [CP-0211] (HELM PEPTIDE1{[dR].R.P.[Hyp].G.F.C.[dF].L.R}|PEPTIDE2{[dR].R.P.[Hyp].G.F.C.[dF].L.R}|CHEM1{[O=C1CC([*:1])C(=O)N1CCCCCCCCN1C(=O)CC([*:2])C1=O]}$PEPTIDE1,CHEM1,7:R3-1:R1|PEPTIDE2,CHEM1,7:R3-1:R2$$$V2.0)	25%	3.98	–
CC(C)C[C@H](NC(=O)[C@@H](Cc1ccccc1)NC(=O)[C@H](CSC1CC(=O)N(CCCCCCCCCCN2C(=O)CC(SC[C@H](NC(=O)[C@H](Cc3ccccc3)NC(=O)CNC(=O)[C@@H]3C[C@@H](O)CN3C(=O)[C@@H]3CCCN3C(=O)[C@H](CCCNC(=N)N)NC(=O)[C@H](N)CCCNC(=N)N)C(=O)N[C@H](Cc3ccccc3)C(=O)N[C@@H](CC(C)C)C(=O)N[C@@H](CCCNC(=N)N)C(=O)O)C2=O)C1=O)NC(=O)[C@H](Cc1ccccc1)NC(=O)CNC(=O)[C@@H]1C[C@@H](O)CN1C(=O)[C@@H]1CCCN1C(=O)[C@H](CCCNC(=N)N)NC(=O)[C@H](N)CCCNC(=N)N)C(=O)N[C@@H](CCCNC(=N)N)C(=O)O (stereo partly drawn) [CP-0230] (HELM PEPTIDE1{[dR].R.P.[Hyp].G.F.C.[dF].L.R}|PEPTIDE2{[dR].R.P.[Hyp].G.F.C.[dF].L.R}|CHEM1{[O=C1CC([*:1])C(=O)N1CCCCCCCCCCN1C(=O)CC([*:2])C1=O]}$PEPTIDE1,CHEM1,7:R3-1:R1|PEPTIDE2,CHEM1,7:R3-1:R2$$$V2.0)	0%	3.98	–
N=C(N)NCCC[C@@H](N)C(=O)N[C@@H](CCCNC(=N)N)C(=O)N1CCC[C@H]1C(=O)N1C[C@H](O)C[C@H]1C(=O)NCC(=O)N[C@@H](Cc1ccccc1)C(=O)N[C@@H](CO)C(=O)N[C@H](Cc1ccccc1)C(=O)N[C@@H](Cc1ccccc1)C(=O)N[C@@H](CCCNC(=N)N)C(=O)O [CP-0181, DArg^0 -Arg^1 -Pro^2 -Hyp^3 -Gly^4 -Phe^5 -Ser^6 -DPhe^7 -Phe^8 -Arg^9, reference compound]	–	–	% RECOVERY (Table F): 100%; Kb (Table F, read-out: RAT UTERUS pA2 (converted)): 100 nM
CC(C)C[C@H](NC(=O)[C@@H](Cc1ccccc1)NC(=O)[C@H](CSC1CC(=O)N(CCCCN2C(=O)CC(SC[C@H](NC(=O)[C@H](Cc3ccccc3)NC(=O)CNC(=O)[C@@H]3C[C@@H](O)CN3C(=O)[C@@H]3CCCN3C(=O)[C@H](CCCNC(=N)N)NC(=O)[C@H](N)CCCNC(=N)N)C(=O)N[C@H](Cc3ccccc3)C(=O)N[C@@H](CC(C)C)C(=O)N[C@@H](CCCNC(=N)N)C(=O)O)C2=O)C1=O)NC(=O)[C@H](Cc1ccccc1)NC(=O)CNC(=O)[C@@H]1C[C@@H](O)CN1C(=O)[C@@H]1CCCN1C(=O)[C@H](CCCNC(=N)N)NC(=O)[C@H](N)CCCNC(=N)N)C(=O)N[C@@H](CCCNC(=N)N)C(=O)O (stereo partly drawn) [CP-0209] (HELM PEPTIDE1{[dR].R.P.[Hyp].G.F.C.[dF].L.R}|PEPTIDE2{[dR].R.P.[Hyp].G.F.C.[dF].L.R}|CHEM1{[O=C1CC([*:1])C(=O)N1CCCCN1C(=O)CC([*:2])C1=O]}$PEPTIDE1,CHEM1,7:R3-1:R1|PEPTIDE2,CHEM1,7:R3-1:R2$$$V2.0)	50%	6.31	–
CC(C)C[C@H](NC(=O)[C@@H](Cc1ccccc1)NC(=O)[C@H](CSC1CC(=O)N(CCCN2C(=O)CC(SC[C@H](NC(=O)[C@H](Cc3ccccc3)NC(=O)CNC(=O)[C@@H]3C[C@@H](O)CN3C(=O)[C@@H]3CCCN3C(=O)[C@H](CCCNC(=N)N)NC(=O)[C@H](N)CCCNC(=N)N)C(=O)N[C@H](Cc3ccccc3)C(=O)N[C@@H](CC(C)C)C(=O)N[C@@H](CCCNC(=N)N)C(=O)O)C2=O)C1=O)NC(=O)[C@H](Cc1ccccc1)NC(=O)CNC(=O)[C@@H]1C[C@@H](O)CN1C(=O)[C@@H]1CCCN1C(=O)[C@H](CCCNC(=N)N)NC(=O)[C@H](N)CCCNC(=N)N)C(=O)N[C@@H](CCCNC(=N)N)C(=O)O (stereo partly drawn) [CP-0172] (HELM PEPTIDE1{[dR].R.P.[Hyp].G.F.C.[dF].L.R}|PEPTIDE2{[dR].R.P.[Hyp].G.F.C.[dF].L.R}|CHEM1{[O=C1CC([*:1])C(=O)N1CCCN1C(=O)CC([*:2])C1=O]}$PEPTIDE1,CHEM1,7:R3-1:R1|PEPTIDE2,CHEM1,7:R3-1:R2$$$V2.0)	90%	2.51	–
CC(C)C[C@H](NC(=O)[C@@H](Cc1ccccc1)NC(=O)[C@H](CSC1CC(=O)N(CCCCCCCCCN2C(=O)CC(SC[C@H](NC(=O)[C@H](Cc3ccccc3)NC(=O)CNC(=O)[C@@H]3C[C@@H](O)CN3C(=O)[C@@H]3CCCN3C(=O)[C@H](CCCNC(=N)N)NC(=O)[C@H](N)CCCNC(=N)N)C(=O)N[C@H](Cc3ccccc3)C(=O)N[C@@H](CC(C)C)C(=O)N[C@@H](CCCNC(=N)N)C(=O)O)C2=O)C1=O)NC(=O)[C@H](Cc1ccccc1)NC(=O)CNC(=O)[C@@H]1C[C@@H](O)CN1C(=O)[C@@H]1CCCN1C(=O)[C@H](CCCNC(=N)N)NC(=O)[C@H](N)CCCNC(=N)N)C(=O)N[C@@H](CCCNC(=N)N)C(=O)O (stereo partly drawn) [CP-0229] (HELM PEPTIDE1{[dR].R.P.[Hyp].G.F.C.[dF].L.R}|PEPTIDE2{[dR].R.P.[Hyp].G.F.C.[dF].L.R}|CHEM1{[O=C1CC([*:1])C(=O)N1CCCCCCCCCN1C(=O)CC([*:2])C1=O]}$PEPTIDE1,CHEM1,7:R3-1:R1|PEPTIDE2,CHEM1,7:R3-1:R2$$$V2.0)	0-10%	1	–
CC(C)C[C@H](NC(=O)[C@@H](Cc1ccccc1)NC(=O)[C@H](CSC1CC(=O)N(CCCCCCCCCCCCN2C(=O)CC(SC[C@H](NC(=O)[C@H](Cc3ccccc3)NC(=O)CNC(=O)[C@@H]3C[C@@H](O)CN3C(=O)[C@@H]3CCCN3C(=O)[C@H](CCCNC(=N)N)NC(=O)[C@H](N)CCCNC(=N)N)C(=O)N[C@H](Cc3ccccc3)C(=O)N[C@@H](CC(C)C)C(=O)N[C@@H](CCCNC(=N)N)C(=O)O)C2=O)C1=O)NC(=O)[C@H](Cc1ccccc1)NC(=O)CNC(=O)[C@@H]1C[C@@H](O)CN1C(=O)[C@@H]1CCCN1C(=O)[C@H](CCCNC(=N)N)NC(=O)[C@H](N)CCCNC(=N)N)C(=O)N[C@@H](CCCNC(=N)N)C(=O)O (stereo partly drawn) [CP-0166] (HELM PEPTIDE1{[dR].R.P.[Hyp].G.F.C.[dF].L.R}|PEPTIDE2{[dR].R.P.[Hyp].G.F.C.[dF].L.R}|CHEM1{[O=C1CC([*:1])C(=O)N1CCCCCCCCCCCCN1C(=O)CC([*:2])C1=O]}$PEPTIDE1,CHEM1,7:R3-1:R1|PEPTIDE2,CHEM1,7:R3-1:R2$$$V2.0)	0%	6.31	–
CC(C)C[C@H](NC(=O)[C@@H](Cc1ccccc1)NC(=O)[C@H](CSC1CC(=O)N(CCN2C(=O)CC(SC[C@H](NC(=O)[C@H](Cc3ccccc3)NC(=O)CNC(=O)[C@@H]3C[C@@H](O)CN3C(=O)[C@@H]3CCCN3C(=O)[C@H](CCCNC(=N)N)NC(=O)[C@H](N)CCCNC(=N)N)C(=O)N[C@H](Cc3ccccc3)C(=O)N[C@@H](CC(C)C)C(=O)N[C@@H](CCCNC(=N)N)C(=O)O)C2=O)C1=O)NC(=O)[C@H](Cc1ccccc1)NC(=O)CNC(=O)[C@@H]1C[C@@H](O)CN1C(=O)[C@@H]1CCCN1C(=O)[C@H](CCCNC(=N)N)NC(=O)[C@H](N)CCCNC(=N)N)C(=O)N[C@@H](CCCNC(=N)N)C(=O)O (stereo partly drawn) [CP-0162] (HELM PEPTIDE1{[dR].R.P.[Hyp].G.F.C.[dF].L.R}|PEPTIDE2{[dR].R.P.[Hyp].G.F.C.[dF].L.R}|CHEM1{[O=C1CC([*:1])C(=O)N1CCN1C(=O)CC([*:2])C1=O]}$PEPTIDE1,CHEM1,7:R3-1:R1|PEPTIDE2,CHEM1,7:R3-1:R2$$$V2.0)	90%	5.01	–
